# Target: human ACC2 (Homo sapiens (Human), UniProt O00763)
# Test: ACC2 assay, spectrophotometric 384 well assay (NADH-linked kinetic method)
# Format: biochemical
# Settings: human ACC2 construct lacking the 128 N-terminal amino acids; coupled lactate dehydrogenase/pyruvate kinase reaction, 340 nm, 25° C.
# Method in brief: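 ADP formation was monitored as NADH consumption at 340 nm for 15 min at 25 °C, using baculovirus-expressed human ACC2 missing its first 128 amino acids, with 500 μM ATP and 2000 μM each of acetyl-CoA and NADH (final). IC50 was fitted by non-linear regression on low-control-subtracted slopes.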
# Sequence of human ACC2 (O00763 129-2458): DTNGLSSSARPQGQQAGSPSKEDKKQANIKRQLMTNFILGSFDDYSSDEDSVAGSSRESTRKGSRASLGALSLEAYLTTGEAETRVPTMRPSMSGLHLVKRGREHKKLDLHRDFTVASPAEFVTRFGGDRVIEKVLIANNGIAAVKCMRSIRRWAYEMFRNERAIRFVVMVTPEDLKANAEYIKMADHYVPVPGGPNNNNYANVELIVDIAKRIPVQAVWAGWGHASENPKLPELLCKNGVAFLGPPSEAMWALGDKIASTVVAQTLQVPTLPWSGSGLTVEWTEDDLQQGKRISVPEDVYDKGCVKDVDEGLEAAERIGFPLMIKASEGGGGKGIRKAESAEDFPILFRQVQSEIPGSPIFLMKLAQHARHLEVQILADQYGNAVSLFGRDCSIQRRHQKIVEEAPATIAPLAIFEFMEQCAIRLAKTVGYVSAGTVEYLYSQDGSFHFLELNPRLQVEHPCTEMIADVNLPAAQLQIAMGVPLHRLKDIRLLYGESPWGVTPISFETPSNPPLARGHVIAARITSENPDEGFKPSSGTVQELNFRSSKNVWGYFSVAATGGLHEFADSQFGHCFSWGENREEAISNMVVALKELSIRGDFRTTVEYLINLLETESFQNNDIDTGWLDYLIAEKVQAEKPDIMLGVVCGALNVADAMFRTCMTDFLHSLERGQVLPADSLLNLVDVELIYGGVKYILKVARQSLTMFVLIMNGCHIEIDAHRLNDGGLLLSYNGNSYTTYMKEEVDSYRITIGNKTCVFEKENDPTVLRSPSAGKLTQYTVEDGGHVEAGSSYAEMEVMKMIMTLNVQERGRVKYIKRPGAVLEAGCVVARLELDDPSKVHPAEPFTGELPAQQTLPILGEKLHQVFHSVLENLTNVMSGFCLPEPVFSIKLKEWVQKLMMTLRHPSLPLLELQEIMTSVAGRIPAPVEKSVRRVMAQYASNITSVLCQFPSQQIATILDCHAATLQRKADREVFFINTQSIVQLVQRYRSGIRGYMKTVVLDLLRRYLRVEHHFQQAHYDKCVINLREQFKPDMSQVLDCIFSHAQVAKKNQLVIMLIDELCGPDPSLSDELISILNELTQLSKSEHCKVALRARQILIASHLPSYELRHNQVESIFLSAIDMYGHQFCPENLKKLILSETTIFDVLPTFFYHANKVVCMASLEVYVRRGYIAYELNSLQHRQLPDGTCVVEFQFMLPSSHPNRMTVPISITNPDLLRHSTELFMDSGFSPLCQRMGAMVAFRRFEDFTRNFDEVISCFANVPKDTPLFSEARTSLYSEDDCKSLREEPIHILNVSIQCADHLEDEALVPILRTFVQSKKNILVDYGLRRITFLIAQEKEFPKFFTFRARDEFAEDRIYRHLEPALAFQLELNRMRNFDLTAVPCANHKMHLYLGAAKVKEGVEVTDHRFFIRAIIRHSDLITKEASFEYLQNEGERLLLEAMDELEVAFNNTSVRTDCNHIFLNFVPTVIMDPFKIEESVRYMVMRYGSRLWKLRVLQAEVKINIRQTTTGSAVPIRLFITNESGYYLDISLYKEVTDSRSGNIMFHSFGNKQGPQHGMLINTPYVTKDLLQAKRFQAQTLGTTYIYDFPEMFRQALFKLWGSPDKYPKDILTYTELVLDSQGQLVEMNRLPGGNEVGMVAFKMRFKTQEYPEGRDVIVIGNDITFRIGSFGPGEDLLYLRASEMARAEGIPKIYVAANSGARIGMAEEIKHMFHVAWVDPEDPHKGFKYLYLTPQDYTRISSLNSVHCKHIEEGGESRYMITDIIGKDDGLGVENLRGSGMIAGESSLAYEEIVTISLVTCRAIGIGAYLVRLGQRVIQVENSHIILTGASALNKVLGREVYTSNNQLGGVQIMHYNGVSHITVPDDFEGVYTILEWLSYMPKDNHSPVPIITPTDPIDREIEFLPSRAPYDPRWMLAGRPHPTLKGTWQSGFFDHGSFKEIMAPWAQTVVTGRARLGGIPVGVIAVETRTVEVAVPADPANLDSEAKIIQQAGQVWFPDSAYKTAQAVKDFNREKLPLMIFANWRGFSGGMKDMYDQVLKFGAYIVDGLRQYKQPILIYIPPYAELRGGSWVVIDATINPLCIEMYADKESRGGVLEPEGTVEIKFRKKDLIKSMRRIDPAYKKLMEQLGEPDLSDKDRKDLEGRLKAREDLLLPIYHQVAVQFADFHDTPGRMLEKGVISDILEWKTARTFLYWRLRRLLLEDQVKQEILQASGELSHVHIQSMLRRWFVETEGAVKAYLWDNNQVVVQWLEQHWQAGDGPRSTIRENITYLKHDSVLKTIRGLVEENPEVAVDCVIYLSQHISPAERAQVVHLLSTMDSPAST
row,Compound,IC50 [nM]
1,Cc1nnsc1C(=O)N[C@@H](C)c1ccc(OC2CCN(c3cccc(C(F)(F)F)n3)C2)cc1 (some centres unmarked) [Example 2.53],314
2,C[C@H](NC(=O)c1ccnc(F)c1)c1ccc(OC2CCN(c3cccc(C(F)(F)F)n3)C2)cc1 (some centres unmarked) [Example 2.54],455
3,C[C@H](NC(=O)CCO)c1ccc(OC2CCN(c3cccc(C(F)(F)F)n3)C2)cc1 (some centres unmarked) [Example 2.55],424
4,C[C@H](NC(=O)C1CC1)c1ccc(OC2CCN(c3ccc(OCC4CC4(F)F)cn3)C2)cc1 (some centres unmarked) [Example 2.56],175
5,C[C@H](NC(=O)c1cnc(N)o1)c1ccc(OC2CCN(c3ccc(OCC4CC4(F)F)cn3)C2)cc1 (some centres unmarked) [Example 2.57],255
6,Cc1oncc1C(=O)N[C@@H](C)c1ccc(OC2CCN(c3ccnc(OC(C)C)c3)C2)cc1 (some centres unmarked) [Example 2.58],69
7,C[C@H](NC(=O)c1cncs1)c1ccc(OC2CCN(c3ccc(OCC4CC4(F)F)cn3)C2)cc1 (some centres unmarked) [Example 2.59],55
8,C[C@H](NC(=O)C(F)F)c1ccc(OC2CCN(c3ccc(OCC4CC4(F)F)cn3)C2)cc1 (some centres unmarked) [Example 2.60],35
9,Cc1cc(C(=O)N[C@@H](C)c2ccc(OC3CCN(c4cccc(C(F)(F)F)n4)C3)cc2)no1 (some centres unmarked) [Example 2.61],35
10,C[C@H](NC(=O)c1ccnc(C#N)c1)c1ccc(OC2CCN(c3cccc(C(F)(F)F)n3)C2)cc1 (some centres unmarked) [Example 2.62],175
11,C[C@H](NC(=O)C(C)(F)F)c1ccc(OC2CCN(c3cccc(C(F)(F)F)n3)C2)cc1 (some centres unmarked) [Example 2.63],204
12,C[C@H](NC(=O)c1cc[nH]n1)c1ccc(OC2CCN(c3cccc(C(F)(F)F)n3)C2)cc1 (some centres unmarked) [Example 2.64],45
13,C[C@H](NC(=O)C1(C#N)CC1)c1ccc(OC2CCN(c3ccnc(OCC4CC4)c3)C2)cc1 (some centres unmarked) [Example 2.65],85
14,CCC(=O)N[C@@H](C)c1ccc(OC2CCN(c3ccnc(OCC4CC4)c3)C2)cc1 (some centres unmarked) [Example 2.66],50
15,C[C@H](NC(=O)c1cnco1)c1ccc(OC2CCN(c3ccnc(OCC4CC4)c3)C2)cc1 (some centres unmarked) [Example 2.67],46
16,C[C@H](NC(=O)[C@@H](C)O)c1ccc(OC2CCN(c3ccnc(OCC4CC4)c3)C2)cc1 (some centres unmarked) [Example 2.68],265
17,C[C@H](NC(=O)c1cnn(C)c1Cl)c1ccc(OC2CCN(c3ccnc(OCC4CC4)c3)C2)cc1 (some centres unmarked) [Example 2.69],281
18,C[C@H](NC(=O)c1ccon1)c1ccc(OC2CCN(c3ccnc(OCC4CC4)c3)C2)cc1 (some centres unmarked) [Example 2.70],99
19,C[C@H](NC(=O)CC#N)c1ccc(OC2CCN(c3ccnc(OCC4CC4)c3)C2)cc1 (some centres unmarked) [Example 2.71],110
20,C[C@H](NC(=O)CO)c1ccc(OC2CCN(c3ccnc(OCC4CC4)c3)C2)cc1 (some centres unmarked) [Example 2.72],130
21,C[C@H](NC(=O)C1(C)CC1)c1ccc(OC2CCN(c3ccnc(OCC4CC4)c3)C2)cc1 (some centres unmarked) [Example 2.73],65
22,C[C@H](NC(=O)c1cnc(N)o1)c1ccc(OC2CCN(c3ccnc(OCC4CC4)c3)C2)cc1 (some centres unmarked) [Example 2.74],359
23,COCC(=O)Nc1nc(C)c(C(=O)N[C@@H](C)c2ccc(OC3CCN(c4ccnc(OCC5CC5)c4)C3)cc2)s1 (some centres unmarked) [Example 2.75],39
24,C[C@H](NC(=O)c1cnn(C)c1)c1ccc(OC2CCN(c3ccnc(OCC4CC4)c3)C2)cc1 (some centres unmarked) [Example 2.77],69

row,Compound,IC50 [nM]
1,C[C@H](NC(=O)[C@@H](C)O)c1ccc(OC2CCN(c3ccnc(OCC4CC4)c3)C2)cc1 (some centres unmarked) [Example 2.78],799
2,C[C@H](NC(=O)c1cncnc1)c1ccc(OC2CCN(c3ccnc(OCC4CC4)c3)C2)cc1 (some centres unmarked) [Example 2.79],456
3,C[C@H](NC(=O)C(C)(C)F)c1ccc(OC2CCN(c3ccnc(OCC4CC4)c3)C2)cc1 (some centres unmarked) [Example 2.80],122
4,C[C@H](NC(=O)c1cnn(C)c1N)c1ccc(OC2CCN(c3ccnc(OCC4CC4)c3)C2)cc1 (some centres unmarked) [Example 2.82],300
5,Cc1[nH]ncc1C(=O)N[C@@H](C)c1ccc(OC2CCN(c3ccnc(OCC4CC4)c3)C2)cc1 (some centres unmarked) [Example 2.84],169
6,C[C@H](NC(=O)c1ccno1)c1ccc(OC2CCN(c3ccnc(OCC4CC4)c3)C2)cc1 (some centres unmarked) [Example 2.85],105
7,C[C@H](NC(=O)c1cn[nH]c1)c1ccc(OC2CCN(c3ccnc(OCC4CC4)c3)C2)cc1 (some centres unmarked) [Example 2.86],63
8,Cc1cc(CC(=O)N[C@@H](C)c2ccc(OC3CCN(c4ccnc(OCC5CC5)c4)C3)cc2)on1 (some centres unmarked) [Example 2.87],270
9,C[C@H](NC(=O)c1ccnnc1)c1ccc(OC2CCN(c3ccnc(OCC4CC4)c3)C2)cc1 (some centres unmarked) [Example 2.88],278
10,CC(=O)Nc1nc(C)c(C(=O)N[C@@H](C)c2ccc(OC3CCN(c4ccc(OC[C@H]5CC5(F)F)cn4)C3)cc2)s1 (some centres unmarked) [Example 2.90],9
11,CCC(=O)N[C@@H](C)c1ccc(OC2CCN(c3ccc(OC[C@H]4CC4(F)F)cn3)C2)cc1 (some centres unmarked) [Example 2.91],67
12,C[C@H](NC(=O)c1cnco1)c1ccc(OC2CCN(c3ccc(OC[C@H]4CC4(F)F)cn3)C2)cc1 (some centres unmarked) [Example 2.92],110
13,C[C@H](NC(=O)c1cn[nH]c1)c1ccc(OC2CCN(c3ccc(OC[C@H]4CC4(F)F)cn3)C2)cc1 (some centres unmarked) [Example 2.93],40
14,C[C@H](NC(=O)C1CC1)c1ccc(OC2CCN(c3ccc(OC[C@H]4CC4(F)F)cn3)C2)cc1 (some centres unmarked) [Example 2.94],84
15,COCC(=O)Nc1nc(C)c(C(=O)N[C@@H](C)c2ccc(OC3CCN(c4ccnc(OCC(F)F)c4)C3)cc2)s1 (some centres unmarked) [Example 2.96],55
16,Cc1[nH]ncc1C(=O)N[C@@H](C)c1ccc(OC2CCN(c3ccc(OCC4CC4(F)F)cn3)C2)cc1 (some centres unmarked) [Example 2.118],169
17,C[C@H](NC(=O)CC#N)c1ccc(OC2CCN(c3ccc(OCC4CC4(F)F)cn3)C2)cc1 (some centres unmarked) [Example 2.119],235
18,COCC(=O)Nc1nc(C)c(C(=O)N[C@@H](C)c2ccc(OC3CCN(c4ccc(OCC5CC5(F)F)cn4)C3)cc2)s1 (some centres unmarked) [Example 2.120],37
19,C[C@H](NC(=O)c1cnco1)c1ccc(OC2CCN(c3ccc(OCC4CC4(F)F)cn3)C2)cc1 (some centres unmarked) [Example 2.121],43
20,C[C@H](NC(=O)c1cnco1)c1ccc(OC2CCN(c3cccc(C(F)(F)F)n3)C2)cc1 (some centres unmarked) [Example 2.122],85
21,CC(=O)Nc1nc(C)c(C(=O)N[C@@H](C)c2ccc(OC3CCN(c4ccnc(N5CCC(F)(F)C5)c4F)C3)cc2)s1 (some centres unmarked) [Example 2.123],58
22,C[C@H](NC(=O)C1(C)CC1)c1ccc(OC2CCN(c3ccnc(N4CCC(F)(F)C4)c3F)C2)cc1 (some centres unmarked) [Example 2.124],72
23,C[C@H](NC(=O)c1cncs1)c1ccc(OC2CCN(c3ccnc(N4CCC(F)(F)C4)c3F)C2)cc1 (some centres unmarked) [Example 2.125],60
24,C[C@H](NC(=O)c1cnco1)c1ccc(OC2CCN(c3ccnc(N4CCC(F)(F)C4)c3F)C2)cc1 (some centres unmarked) [Example 2.126],45

# Next, values leading:
row,IC50 [nM],Compound
1,35,C[C@H](NC(=O)C(F)F)c1ccc(OC2CCN(c3ccnc(OCC4CC4)c3)C2)cc1 (some centres unmarked) [Example 2.81]
2,210,CC(C#N)C(=O)N[C@@H](C)c1ccc(OC2CCN(c3ccnc(OCC4CC4)c3)C2)cc1 (some centres unmarked) [Example 2.83]
3,49,Cc1nocc1C(=O)N[C@@H](C)c1ccc(OC2CCN(c3ccnc(OCC(F)F)c3)C2)cc1 (some centres unmarked) [Example 2.95]
4,140,C[C@H](NC(=O)C(F)F)c1ccc(OC2CCN(c3ccnc(OCC(F)F)c3)C2)cc1 (some centres unmarked) [Example 2.97]
5,282,Cc1[nH]ncc1C(=O)N[C@@H](C)c1ccc(OC2CCN(c3ccnc(OCC(F)F)c3)C2)cc1 (some centres unmarked) [Example 2.98]
6,85,C[C@H](NC(=O)c1cn[nH]c1)c1ccc(OC2CCN(c3ccnc(OCC(F)F)c3)C2)cc1 (some centres unmarked) [Example 2.99]
7,624,Cc1cc(CC(=O)N[C@@H](C)c2ccc(OC3CCN(c4ccnc(OCC(F)F)c4)C3)cc2)on1 (some centres unmarked) [Example 2.100]
8,76,C[C@H](NC(=O)c1cncs1)c1ccc(OC2CCN(c3ccnc(OCC(F)F)c3)C2)cc1 (some centres unmarked) [Example 2.101]
9,136,C[C@H](NC(=O)c1cnn(C)c1)c1ccc(OC2CCN(c3ccnc(OCC(F)F)c3)C2)cc1 (some centres unmarked) [Example 2.102]
10,523,C[C@H](NC(=O)c1cnc(N)o1)c1ccc(OC2CCN(c3ccnc(OCC(F)F)c3)C2)cc1 (some centres unmarked) [Example 2.103]
11,658,CC(C#N)C(=O)N[C@@H](C)c1ccc(OC2CCN(c3ccnc(OCC(F)F)c3)C2)cc1 (some centres unmarked) [Example 2.104]
12,784,C[C@H](NC(=O)[C@@H](C)O)c1ccc(OC2CCN(c3ccnc(OCC(F)F)c3)C2)cc1 (some centres unmarked) [Example 2.105]
13,88,CCC(=O)N[C@@H](C)c1ccc(OC2CCN(c3ccnc(OCC(F)F)c3)C2)cc1 (some centres unmarked) [Example 2.106]
14,389,C[C@H](NC(=O)c1ccno1)c1ccc(OC2CCN(c3ccnc(OCC(F)F)c3)C2)cc1 (some centres unmarked) [Example 2.107]
15,714,C[C@H](NC(=O)c1ccnnc1)c1ccc(OC2CCN(c3ccnc(OCC(F)F)c3)C2)cc1 (some centres unmarked) [Example 2.108]
16,453,C[C@H](NC(=O)C(C)(C)F)c1ccc(OC2CCN(c3ccnc(OCC(F)F)c3)C2)cc1 (some centres unmarked) [Example 2.109]
17,263,C[C@H](NC(=O)c1ccon1)c1ccc(OC2CCN(c3ccnc(OCC(F)F)c3)C2)cc1 (some centres unmarked) [Example 2.110]
18,107,C[C@H](NC(=O)c1cnco1)c1ccc(OC2CCN(c3ccnc(OCC(F)F)c3)C2)cc1 (some centres unmarked) [Example 2.111]
19,298,C[C@H](NC(=O)c1cnn(C)c1N)c1ccc(OC2CCN(c3ccnc(OCC(F)F)c3)C2)cc1 (some centres unmarked) [Example 2.112]
20,77,C[C@H](NC(=O)C(F)(F)F)c1ccc(OC2CCN(c3ccnc(OCC(F)F)c3)C2)cc1 (some centres unmarked) [Example 2.113]
21,611,C[C@H](NC(=O)c1cnn(C)c1Cl)c1ccc(OC2CCN(c3ccnc(OCC(F)F)c3)C2)cc1 (some centres unmarked) [Example 2.114]
22,869,C[C@H](NC(=O)CO)c1ccc(OC2CCN(c3ccnc(OCC(F)F)c3)C2)cc1 (some centres unmarked) [Example 2.115]
23,362,C[C@H](NC(=O)CC#N)c1ccc(OC2CCN(c3ccnc(OCC(F)F)c3)C2)cc1 (some centres unmarked) [Example 2.116]

# From US8877741B2, “Pyrrolidine derivatives, pharmaceutical compositions and uses thereof” (Boehringer Ingelheim International GmbH, priority 2013, dated 2014)
